Data on six compounds can be found in BindingDB's records for doi:10.1021/jm00080a018 (Toyo Jozo, 1992).

The experiment concerns the target Adenosylhomocysteinase (Oryctolagus cuniculus). Briefly: Inhibitory effect against S-adenosyl-L-homocysteine hydrolase of rabbit erythrocyte.

In the case of `CC1=C[C@@H](n2cnc3c(N)ncnc32)[C@H](O)[C@@H]1O`, the IC50 (as a rule, the concentration needed to halve the response being measured) is above 40.4 µM.

Compound `Nc1ncnc2c1ncn2[C@@H]1C=C(CCl)[C@@H](O)[C@H]1O` had an IC50 above 35.4 µM.

In turn, `COCC1=C[C@@H](n2cnc3c(N)ncnc32)[C@H](O)[C@@H]1O` came in with an IC50 above 36 µM.

In turn, `Nc1ncnc2c1ncn2[C@@H]1C=C(CF)[C@@H](O)[C@H]1O` showed an IC50 above 37.7 µM.

In turn, `CSCC1=C[C@@H](n2cnc3c(N)ncnc32)[C@H](O)[C@@H]1O` had an IC50 above 34 µM.

Compound `C=CC1=C[C@@H](n2cnc3c(N)ncnc32)[C@H](O)[C@@H]1O` returned an IC50 above 38.5 µM.
